Laboratory results published in patent publication US5094857A, “Treatment of acne or androgenetic alopecia by topical administration of ethisterone” (priority 1987, dated 1992).

Legend:
[1] = biological target: T1, androgen receptor preparations of sebaceous glands (Mesocricetus auratus, UniProt A0A1U7QL32); assay: Competitive binding analysis (displacement of tritium-marked R 1881); parameters: species or system Syrian hamster; settings: for in vitro affinity at 50% blocking (rank order): displacement of 8 nM tritium-marked R 1881, FIG. 1; for affinity (RBA) for the androgen receptors, in words: displacement of tritium-marked R 1881
T1 construct: [3H]R1881 displacement with excess triamcinolone acetate
T1 sequence (A0A1U7QL32 1-900): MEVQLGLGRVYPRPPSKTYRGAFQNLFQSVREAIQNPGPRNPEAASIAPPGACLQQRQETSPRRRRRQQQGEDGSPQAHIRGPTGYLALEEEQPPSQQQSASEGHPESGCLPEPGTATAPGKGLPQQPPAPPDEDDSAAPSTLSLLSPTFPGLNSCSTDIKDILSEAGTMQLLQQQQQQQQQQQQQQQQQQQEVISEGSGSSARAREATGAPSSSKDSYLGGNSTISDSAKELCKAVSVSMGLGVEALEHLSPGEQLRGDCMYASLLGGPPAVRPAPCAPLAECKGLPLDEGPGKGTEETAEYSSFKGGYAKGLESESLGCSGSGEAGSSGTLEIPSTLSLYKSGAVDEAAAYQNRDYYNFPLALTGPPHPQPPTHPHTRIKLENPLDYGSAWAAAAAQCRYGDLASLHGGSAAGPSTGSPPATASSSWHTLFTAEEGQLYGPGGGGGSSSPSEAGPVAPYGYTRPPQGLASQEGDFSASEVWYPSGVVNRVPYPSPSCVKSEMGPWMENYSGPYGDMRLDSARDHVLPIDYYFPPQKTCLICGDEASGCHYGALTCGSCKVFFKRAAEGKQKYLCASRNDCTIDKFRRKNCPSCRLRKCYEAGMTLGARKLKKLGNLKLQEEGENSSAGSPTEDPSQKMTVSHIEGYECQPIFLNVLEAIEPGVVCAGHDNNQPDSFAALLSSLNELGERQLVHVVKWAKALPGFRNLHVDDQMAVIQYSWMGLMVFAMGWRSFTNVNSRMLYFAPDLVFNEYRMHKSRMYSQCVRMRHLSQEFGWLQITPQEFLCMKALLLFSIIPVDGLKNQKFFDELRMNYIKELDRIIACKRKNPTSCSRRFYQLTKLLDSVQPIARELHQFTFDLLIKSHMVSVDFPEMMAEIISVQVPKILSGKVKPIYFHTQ
Text: The standardisation basis in competitive binding analysis is the concentration of the competitor which, can displace 50% of a radioactively labeled reference substance from the receptor. This is conditioned upon the assumption that a relative binding efficiency (RPA) is proof of a high […] in the test material.
The comparison of the in vivo sebum suppression with RBA to the androgen receptor in vitro, should give the key to the answer of whether the substance itself or metabolites thereof, are responsible for the activity.
For the competitive study the web material of five ear shells was gathered. After homogenization in buffer A (10 mM-Tris-HCl-pH 7.4; 1.5 mM EDTA; 5 mM monothiogylcerine) cytosol was obtained as a supernate after ultracentrification at 120×10^3 g for thirty minutes at 4° C. The protein content was adjusted to between 1 to 5 mg/ml with a buffer A.
After a reaction time of 12 hours at 4° C. to achieve equilibrium, the unbound steroid hormones were removed from the reaction mixture by means of dextrancoated activated charcoal suspension (0.5% activated charcoal and 0.05% detran in […] Tris-HCl-buffer; pH 7.4). An aliquot of the supernate after centrifugation was measured in a fluid scintillation counter.

androgenetic alopezia = assay: Hair growth material on bald spots in androgenetic alopezia (Example VI); format: in vivo; settings: for hair growth on previously bald spot: 2% solution in 50% ethanol and 50% Tween 20, rubbed twice daily, 1 mg per cm^2, four weeks; for undesirable side effects: topical, twice daily, 2% solution
Method: A 2% solution of nor-ethisterone in 50% ethanol and 50% Tween 20, was utilized for the assistance in hair growth by androgenetic alopezia. The bald spots were rubbed twice daily with a sufficient amount of hair growth material to provide a concentration of 1 mg per cm^2 nor-ethisterone through the skin barrier to the receptor site.

gestogen receptors = biological target: T2, gestogen receptors (Ovis aries, UniProt A0ACI6RU96); assay: Binding to gestogen receptors in a sheep uterus (FIG. 2)
T2 sequence (A0ACI6RU96 1-911): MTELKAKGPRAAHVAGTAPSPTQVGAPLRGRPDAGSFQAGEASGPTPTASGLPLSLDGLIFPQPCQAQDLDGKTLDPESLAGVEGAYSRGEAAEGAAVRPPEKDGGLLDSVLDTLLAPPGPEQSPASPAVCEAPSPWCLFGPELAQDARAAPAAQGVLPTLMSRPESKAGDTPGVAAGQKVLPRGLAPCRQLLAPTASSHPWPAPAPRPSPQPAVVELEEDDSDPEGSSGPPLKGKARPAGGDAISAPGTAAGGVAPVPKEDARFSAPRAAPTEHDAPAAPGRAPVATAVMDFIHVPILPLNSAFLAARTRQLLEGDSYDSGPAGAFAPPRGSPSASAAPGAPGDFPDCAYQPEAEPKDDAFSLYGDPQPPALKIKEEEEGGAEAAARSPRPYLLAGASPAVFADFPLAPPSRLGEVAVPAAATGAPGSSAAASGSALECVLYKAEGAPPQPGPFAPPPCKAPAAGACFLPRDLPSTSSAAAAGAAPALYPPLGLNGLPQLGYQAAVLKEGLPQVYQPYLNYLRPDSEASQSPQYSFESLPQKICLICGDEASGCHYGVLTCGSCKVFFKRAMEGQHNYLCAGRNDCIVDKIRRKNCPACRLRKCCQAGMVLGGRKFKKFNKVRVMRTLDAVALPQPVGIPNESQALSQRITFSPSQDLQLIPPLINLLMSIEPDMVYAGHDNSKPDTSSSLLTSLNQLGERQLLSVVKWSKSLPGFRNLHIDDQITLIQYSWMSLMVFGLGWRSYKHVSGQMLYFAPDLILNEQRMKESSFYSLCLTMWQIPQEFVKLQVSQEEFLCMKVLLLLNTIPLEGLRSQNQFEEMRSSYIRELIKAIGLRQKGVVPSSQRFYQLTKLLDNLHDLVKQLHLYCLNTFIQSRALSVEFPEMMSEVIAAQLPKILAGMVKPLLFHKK
Text: These experiments relating to the competitive binding of different hormanal substances can only describe certain aspects of the binding kinetics, but not all aspects of the pharmacokinetics. It is thus necessary to test the biological effects of steroid hormones by in vivo methods.

[2] = system: skin upper surface lipids; assay: Human studies: skin surface lipid content after topical ethisterone lotion; format: in vivo
Method: A 2% ethisterone formulation was prepared in accordance with Example I. Five male and five female human test subjects took part in the experiment who were treated on their left foreheads with the ethisterone lotion. The subjects applied the lotion twice a day at a concentration of approximately 0.1 mg per cm^2 of ethisterone applied to the receptors.
The lipid content of the upper skin surface of both left and right forehead portions were measured prior to the onset of therepy (0 control), in the second and the fourth weeks of therapy.
Initially the replacement sum was determined. The skin was first cleaned with cigarette paper dipped in acetone and stroked six to eight times over the test area. After sixty minutes the skin lipids were removed from the skin portion of the following manner. Cigarette paper was placed by means of tweezers on the segment to be measured and on the cigarette paper was placed a mass of 280 grams having a surface area of 5 cm^2. Thereafter, the paper was eluted with a mixture comprising 70 parts of acetone and 30 parts of methanol. The thus produced eluate was evaporated to dryness and treated with phosphovanillic acid, thereafter the eluate was evaluated by gas chromatography. Previously, the gas chromatograph had been calibrated with 25 standard skin lipids (mono-di-, triglyceride, cholesterol as well as cholesterol esters, oleic acid esters, having 10 to 18 carbon atoms as well as waxes having up to 28 carbon atoms).
The eluate was also subjected, to thin layer chromomatography. It is noted that generally, speaking the standard substances may be regarded as representative of skin upper surface lipids.

[3] = ethisterone in oil-in-water emulsion applied to the skin (summary statement)

For CCCC1(O)CCC2C3CCC4CC(=O)CC(C)C4(C)C3CCC21C (stereo not drawn) [17-alpha-PM, 17-alpha-propyl-mesterolone], the “in vitro affinity at 50% blocking (rank order)” value [1] was “R 1881, 17-alpha-PM, ethisterone, CPA, SL and dexamethasone”, the “affinity (RBA) for the androgen receptors, in words” value (shortened to “affinity (RBA)”) [1] was “substantially higher affinity” and the “hair growth on previously bald spot” value (androgenetic alopezia) was “practically the same result is obtained”. For the same compound, the undesirable side effects (androgenetic alopezia) was “no undesirable side effects were noted”.
C[C@@H]1C[C@H]2[C@@H]3CCC4=CC(=O)C=C[C@]4(C)[C@@]3(F)[C@@H](O)C[C@]2(C)[C@@]1(O)C(=O)CO [dexamethasone] was tested, and the “in vitro affinity at 50% blocking (rank order)” value [1] was “R 1881, 17-alpha-PM, ethisterone, CPA, SL and dexamethasone” and the “affinity (RBA)” value [1] was “may be disregarded”.
C#C[C@]1(O)CC[C@H]2[C@@H]3CCC4=CC(=O)CC[C@]4(C)[C@H]3CC[C@@]21C [ethisterone, 17-alpha-hydroxypregen-4-en-20-yn-3-one] was tested, and the “binding affinity to gestogen receptors (comparison)” value (from here on “binding affinity”) (gestogen receptors) was “nor-ethisterone has a higher binding affinity than progesterone and ethisterone”, the “lipid content on treated skin upper surface area less than untreated area” value ([2]; 2% ethisterone lotion twice a day on left forehead, approx. 0.1 mg per cm^2, four week treatment) was 25% and the wax content reduced ([2]; 2% ethisterone lotion twice a day on left forehead, four week treatment) was 75%. The “reduction of lipids which comprise waxy substances (C20 to C28)” value [2, 3] was 75 % by weight, the “reduction of total lipid content of the skin from the initial value” [2, 3] was “about 25%” and the “in vitro affinity at 50% blocking (rank order)” value [1] was “R 1881, 17-alpha-PM, ethisterone, CPA, SL and dexamethasone”. The “affinity (RBA)” value [1] was “satisfactory middle place between 17-alpha-PM and synthetic R 1881”.
In the case of C#C[C@]1(O)CC[C@H]2[C@@H]3CCC4=CC(=O)CC[C@@H]4[C@H]3CC[C@@]21C [nor-ethisterone, 17-hyroxy-19-norpregn-4-en-20-yn-3-one], the “binding affinity” value (gestogen receptors) is reported as “higher binding affinity than progesterone and ethisterone”, the “hair growth on previously bald spot” value (androgenetic alopezia) is reported as “a hair fuzz is noted on the previously bald spot” and the undesirable side effects (androgenetic alopezia) is reported as “no undesirable side effects were noted”.
For CC(=O)[C@H]1CC[C@H]2[C@@H]3CCC4=CC(=O)CC[C@]4(C)[C@H]3CC[C@]12C [progesterone], the “binding affinity” value (gestogen receptors) was “nor-ethisterone has a higher binding affinity than progesterone and ethisterone”.
